These results are taken from PubChem BioAssay (NCI).

Common to all, as to assay: growth of human tumour cells (NCI), 48 h
Test [1] has as its system HCC-2998 colon.
The test system of test [2] is NCI-H23 lung.
Test [3] has as its system OVCAR-3 ovarian.
Test [4] concerns COLO 205 colon.
Test [5] relates to U251 CNS.
Test [6] concerns IGROV1 ovarian.
The test system of test [7] is M14 melanoma.
For test [8], the system named is MOLT-4 leukemia.
Test [9] deals with SK-MEL-5 melanoma.

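Dose response: 5 concentrations. Exposure: 48 h. Format: 96-well plates. Endpoint: linear interpolation; highest concentration if not reached. GI50 is the concentration that inhibits growth by half. TGI: concentration producing complete growth inhibition.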

In the case of `Cn1cc(-c2csc(-c3cn(CCCCN4CCCCC4)c4ccccc34)n2)c2cccnc21`, the GI50 is 1.85 µM in [1], 1.66 µM in [2] and 1.71 µM in test [3]. In addition, the figures for the TGI in test [1], in [2] and in test [3] were 3.41 µM, 3.21 µM and 3.13 µM, respectively.

As for `COC(=O)C(=O)C(C(C)=O)C(=O)NCc1ccc(OC)c(OC)c1` (centres undefined), the TGI in [4], in test [1], in test [5], in [6], in [2] and in test [7] was over 100 µM each time. For the same compound, the TGI in test [3], in test [8] and in [9] was over 100 µM in each case.

`O=C(CC(=O)C1CCOC1=O)C(=O)Nc1cccc(Cl)c1` (centres undefined): the TGI in test [4], in [1], in test [5], in test [6], in [2] and in test [7] was over 100 µM each time. Further, the TGI in test [3], in [8] and in [9] was over 100 µM in each case.

Consider `c1coc(-c2c3ccc(=[N+]4CCCCC4)cc-3oc3cc(N4CCCCC4)ccc23)c1`, for which the GI50 in [1] was 0.0751 µM; in test [3], 0.033 µM; in test [8], 0.0463 µM; in test [9] it was 0.177 µM. The TGI in test [1] was 0.331 µM; in test [3], 0.126 µM; in [8] it was 0.903 µM; in test [9], 0.471 µM.

Regarding `Cc1ccccc1C1=[N+]([O-])c2ccc(Cl)cc2C1=O`, the TGI in test [4] was found to be 20.2 µM; in [1] it was 29.4 µM; in test [5], 32 µM; in test [6] it was 29.8 µM; in [2] it was 32.2 µM; in [7], 29.9 µM. In addition, the results for the TGI in test [3], in [8] and in [9] were 7.17 µM, 24.3 µM and 26.7 µM, respectively.

Regarding `CCC1CN2CCc3cc(OC)c(OC)cc3C2CC1CC1c2cc(OC)c(OC)cc2CCN1C(=O)C1CCCN1` (centres undefined), the TGI in test [4] was 25.7 µM; in [1] it was 58.6 µM; in test [5], 69.4 µM; in [6] it was 71.7 µM; in test [2], over 100 µM; in [7] it was 27.6 µM. Also, the TGI in test [3] was 90 µM; in [8], 85.1 µM; in test [9] it was 31.3 µM.

As to `CCOC(=O)NC(=O)c1cn(C(CC)COC(=O)NCCCCCCNC(=O)OCC(CC)n2cc(C(=O)NC(=O)OCC)c(=O)[nH]c2=O)c(=O)[nH]c1=O` (centres undefined), the TGI in test [4], in test [1], in test [5], in [6], in test [7] and in [3] was over 100 µM each time. Further, the TGI in test [8] and in test [9] was over 100 µM in each case.

Take `COC(=O)/C(=N/O)C(C(=O)C=C(C)C)C(=O)C(=O)Nc1nc2ccc([N+](=O)[O-])cc2s1` (centres undefined): the TGI is over 100 µM in [4]; over 100 µM in test [1]; over 100 µM in test [5]; over 100 µM in test [6]; 83.2 µM in test [2]; over 100 µM in test [7]. The results for the TGI in test [3], in test [8] and in [9] were 76.1 µM, 72.9 µM and over 100 µM, respectively.

On to `Cn1c(=O)nc2n(-c3cc(C(F)(F)F)cc(C(F)(F)F)c3)c3ccccc3nc-2c1=O`, for which the TGI in test [4], in test [1], in test [5], in [6], in [2] and in test [7] was over 100 µM each time. For the same compound, the TGI in test [3] is over 100 µM; in [8], over 100 µM; in test [9] it was 54.4 µM.

Take `CC(C(=O)c1ccc(Cl)cc1)/C(=N/NC(=O)NN)C(=O)Nc1cccc(C(F)(F)F)c1` (centres undefined): the TGI in [4], in test [1], in [5], in test [6], in test [2] and in [7] was over 100 µM each time. Further, the TGI in test [3], in test [8] and in test [9] was over 100 µM in each case.

Consider `O=C(N/C(=C\c1ccc([N+](=O)[O-])cc1)c1nc2ccccc2[nH]1)c1ccccc1`, for which the TGI in test [4], in [1], in test [5], in test [6], in [2] and in [7] was over 100 µM throughout. Also, the TGI in [8] and in test [9] was over 100 µM each time.

For the compound `CC(=O)N1CCN(c2ccc(OCC3COC(Cn4ccnc4)(c4ccc(Cl)cc4Cl)O3)cc2)CC1` (centres undefined), the TGI in [4] was 40.8 µM; in [1], over 100 µM; in [6], over 100 µM; in test [7], 52.1 µM; in [3], over 100 µM; in test [8], over 100 µM. In addition, in test [9], the TGI stood at 24.9 µM.

For `CC(C)CCC[C@@H](C)C1CCC2[C@@H]3CC=C4C[C@@H](C(=O)NCCN(C)C)CC[C@]4(C)C3CC[C@@]21C` (some centres undefined), the TGI in test [4] is 38.3 µM; in [1] it was 65.6 µM; in [5] it was 77.4 µM; in test [6] it was over 100 µM; in test [2] it was 52.1 µM; in test [7] it was 32.6 µM. For the same compound, the TGI in [3] and in [8] was over 100 µM each time.

Turning to `Cc1ccc(C)c(N2C/C(=N\NC(=O)CC#N)C(c3nc4ccccc4s3)C(=O)C2=O)c1` (centres undefined), the TGI in test [4], in [1], in test [5], in [6], in [2] and in test [7] was over 100 µM in each case. Further, the TGI in test [3], in test [8] and in test [9] was over 100 µM each time.

In the case of `COc1c(C)n(CCO)ccc1=O`, the TGI in [4], in test [5], in [7], in [3], in test [8] and in [9] was over 100 µM throughout.

Turning to `COc1cccc(/C=N/[N-]C(=O)c2ccncc2)c1[O-].COc1cccc(/C=N/[N-]C(=O)c2ccncc2)c1[O-].[O]=[U](=[O])([OH2+])[OH2+]`, the GI50 in test [4] was 4.09 µM; in test [1], 12.8 µM; in [5] it was 4.34 µM; in test [6], 9.59 µM; in [2], 3.93 µM; in [7] it was 5.47 µM. In addition, the GI50 in [3] was 3.08 µM; in test [8] it was 1.44 µM; in test [9], 11.6 µM. Further, the TGI in [4] was over 100 µM; in test [1] it was over 100 µM; in [5] it was 40.8 µM; in test [6], over 90.4 µM; in test [2], over 70 µM; in test [7], over 61.4 µM. The TGI in test [3], in [8] and in [9] was over 100 µM each time.

`CC(C)(C)c1ccc2c(c1)S(=O)(=O)Nc1ccc(Cl)cc1NS(=O)(=O)c1cc(C(C)(C)C)ccc1OCCOCCOCCO2`: the TGI in test [4], in test [1], in test [5], in test [6], in [2] and in [7] was over 100 µM each time. The TGI in test [3], in test [8] and in [9] was over 100 µM in each case.

On to `CCOC(=O)NC(=O)c1cn(C2CCCCC2)c(=O)[nH]c1=O`, for which the TGI in test [4], in test [1], in test [5], in test [6], in test [2] and in [7] was over 100 µM in each case. The TGI in [3] and in test [8] was over 100 µM throughout.

With `Nc1c(-c2ccccc2-c2c(N)[n+]([O-])c3ccccc3[n+]2[O-])[n+]([O-])c2ccccc2[n+]1[O-]`, the TGI was 23.6 µM in test [4]; over 100 µM in test [1]; over 100 µM in test [5]; over 100 µM in test [2]; 30.1 µM in [7]; over 100 µM in test [3]. In addition, the TGI amounted to 8.42 µM in [8] and 31 µM in [9].

Consider `CCCC(=O)C1=C(O)C(Cc2c(O)c(C)c(O)c(C(=O)CCC)c2O)=C(O)C(C)(C)C1=O`, for which the TGI was over 50 µM in [4]; 34.2 µM in test [1]; over 50 µM in [5]; over 50 µM in [6]; over 50 µM in test [2]; over 50 µM in [7]. Moreover, the TGI is over 50 µM in test [3], 36.3 µM in test [8] and over 50 µM in test [9].

As to `O=[N+]([O-])c1cccc(C2=NOC(C3CCCCC3)C2)c1` (centres undefined), the TGI in [4], in test [1], in [5], in test [6], in [2] and in [7] was over 100 µM each time. Besides, the TGI in [3], in [8] and in test [9] was over 100 µM throughout.

In the case of `CCOP(=O)(OCC)C(C(=O)OC)C(=O)C(=O)Nc1ccc(Cl)cc1Cl` (centres undefined), the TGI in [4], in [1], in test [5], in [6], in test [2] and in test [7] was over 100 µM in each case. Further, the TGI in test [3], in [8] and in [9] was over 100 µM each time.

Take `Nc1ccccc1C(=O)/C=C/c1c(O)ccc2ccccc12`: the TGI in [4], in test [1], in test [5], in test [6], in test [2] and in test [7] was over 100 µM each time. Also, the TGI in test [3], in [8] and in [9] was over 100 µM throughout.

`CCC(C)(O)c1cnc(CC(C)C)c(=O)n1O` (centres undefined): the TGI in test [4] is over 100 µM; in [1], over 100 µM; in [5], over 100 µM; in test [6], over 100 µM; in test [2] it was over 100 µM; in [3] it was 81.6 µM. In addition, the figures for the TGI in test [8] and in test [9] were 48.6 µM and over 100 µM, respectively.

In the case of `Nc1nc(-c2ccc(Cl)c([N+](=O)[O-])c2)cs1`, the TGI in test [4], in test [1], in test [5], in test [6], in test [2] and in test [7] was over 100 µM in each case. Also, the TGI in [3], in [8] and in [9] was over 100 µM throughout.

For `CCOCN1COCN(C)C1=O`, the TGI in test [4], in test [1], in test [5], in test [6], in [2] and in test [7] was over 100 µM each time. Besides, the TGI in test [3] and in test [9] was over 100 µM in each case.

On to `CC1=C(C#N)C(=O)CC(c2ccc(Cl)cc2)N(C)N1` (centres undefined), for which the TGI in test [1], in [5], in test [2], in test [7], in test [8] and in [9] was over 100 µM throughout.

Consider `NC(=O)C(=O)CC(=O)c1ccccc1NC1=CC(=O)C(=O)c2ccccc21`, for which the TGI in test [4], in test [1], in [5], in test [6], in test [2] and in test [7] was over 100 µM each time. Moreover, the values for the TGI in test [3], in [8] and in test [9] were over 100 µM, over 100 µM and over 55.1 µM, respectively.

With `CCN1c2ccccc2-c2c3c1cc(C)cc3c1ccccc1[n+]2CC`, the TGI in [1] came to 2.11 µM; in test [5] it was 2.68 µM; in [2] it was 4.08 µM; in test [7] it was 3.74 µM; in test [3] it was 2.39 µM; in [8] it was 3.41 µM. In test [9], this compound registered a TGI of 1.84 µM.
